Source: ChEMBL document CHEMBL1140519, “2-(2-Chloro-6-fluorophenyl)acetamides as potent thrombin inhibitors” (Bioorg Med Chem Lett, 2007)

Each compound was assayed against Prothrombin (Homo sapiens, UniProt P00734) (assay: Inhibition of human thrombin after 15 mins by standard chromogenic assay).
N=C(N)NOCCNC(=O)Cc1c(Cl)ccc(NCC2(c3ccccn3)CC2)c1F was tested, and the Ki was 57 nM.
Cc1nc(N)ccc1CNC(=O)Cc1c(Cl)ccc(NCC(F)(F)c2ccc(Cl)c[n+]2[O-])c1F was tested, and the Ki was 0.9 nM.
N=C(N)NOCCNC(=O)Cc1c(Cl)ccc(NCC(F)(F)c2cccc3cccnc23)c1F was tested, and the Ki was 2.7 nM.
Work on Cc1nc(N)ccc1CNC(=O)Cc1c(Cl)ccc(NCC(F)(F)c2ccc(Cl)cn2)c1F yielded a Ki of 0.7 nM.
With NC(N)=NOCCNC(=O)Cc1c(Cl)ccc(NCC(F)(F)c2cccc3cnccc23)c1F the Ki was 4.7 nM.
NC(N)=NOCCNC(=O)Cc1c(Cl)ccc(NCC(F)(F)c2ccccn2)c1F showed a Ki of 8.6 nM.
Compound N=C(N)NOCCNC(=O)Cc1c(Cl)ccc(NCC(F)(F)c2cnc3ccccc3c2)c1F has a Ki of 169 nM.
In the case of NC(N)=NOCCNC(=O)Cc1c(Cl)ccc(NCC(F)(F)c2cccnc2)c1F, the Ki is reported as 33.9 nM.
For NC(N)=NOCCNC(=O)Cc1c(Cl)ccc(NCC(F)(F)c2ccc(Cl)cn2)c1F, the Ki was 1.8 nM.
For N=C(N)NOCCNC(=O)Cc1c(Cl)ccc(NS(=O)(=O)c2ccccc2)c1F, the Ki was 1280 nM.
In the case of N=C(N)NOCCNC(=O)Cc1c(Cl)ccc(NCC2(c3cccnc3)CC2)c1F, the Ki is reported as 142 nM.
Compound Cc1nc(N)ccc1CNC(=O)Cc1c(Cl)ccc(NCC(F)(F)c2ccccc2)c1F has a Ki of 10.3 nM.
Work on CC(C)(CNc1ccc(Cl)c(CC(=O)NCCONC(=N)N)c1F)c1cccnc1 yielded a Ki of 128 nM.
Work on CC(C)(CNc1ccc(Cl)c(CC(=O)NCCONC(=N)N)c1F)c1ccccn1 yielded a Ki of 58 nM.
